# According to patent US10548864B2, “Enhanced ATRA-related compounds for the treatment of proliferative diseases, autoimmune diseases, and addiction conditions” (Beth Israel Deaconess Medical Center, Inc., priority 2015, dated 2020):
# Assays:
# GST-FKBP12 = GST-FKBP12 (Homo sapiens, UniProt P62942); experiment: Chymotrypsin coupled PPIase activity assay; assay type: biochemical
# Experimental: (§1) Compounds were preincubated with enzymes for 0.5 to 2 hours at 4° C. Ki values obtained from PPIase assays are derived from the Cheng-Prusoff equation:
# (§2) [formula] where Km is the Michaelis constant for the used substrate, S is the initial concentration of the substrate in the assay, and the IC50 value is of the inhibitor. Cell Growth Assays
# GST-Pin1 [1] = biological target: T1, GST-Pin1 (Homo sapiens, UniProt Q13526); experiment: Chymotrypsin coupled PPIase activity assay; assay type: biochemical
# Experimental: as §1, §2
# GST-cyclophilin = experiment: Chymotrypsin coupled PPIase activity assay; assay type: biochemical
# Experimental: Compounds were preincubated with enzymes for 0.5 to 2 hours at 4° C. Ki values obtained from PPIase assays are derived from the Cheng-Prusoff equation: [formula] where Km is the Michaelis constant for the used substrate, S is the initial concentration of the substrate in the assay, and the IC50 value is of the inhibitor. Cell Growth Assays
# GST-Pin1 [2] = biological target: T1, GST-Pin1; experiment: Fluorescence polarization pTide competition assay (FP-HTS / FP assay)
# Text: Measurements of fluorescence polarization and fluorescence absorbance were made in black 384-well plates (Corning) using a Synergy II plate reader. […] The assay can tolerate up to 10% DMSO.
# Molecules that compete with pTide for binding to the active site, e.g., Pin1 substrates, were detected under equilibrium conditions. A Z score was used to identify and rank those molecules that were most competitive with pTide (e.g., that have higher binding affinity). A Z score is defined as Z=(x−μ)/σ, where x is a raw score, μ is the mean of the population, and σ is the standard deviation of the population. Molecules with the most negative Z scores represent those with the highest Pin1 binding affinity. The Z′ value for this assay was around 0.70 and was consistent for day-to-day performance, with a coefficient of variation in the range of 4-5%.
# [3] = test system: APL cells from hCG-PML-RARα transgenic mice; details: APL mouse model
# human APL NB4 cells [4] = experiment: Immunoblot of Pin1 and PML-RARα in APL NB4 cells; assay type: cell-based; details: for PML-RARα level: APL cells; for PML-RARα level / Pin1 degradation: 72 hours
# NB4 cells = experiment: APL cell differentiation (Giemsa staining, FACS with CD14 and CD11b); assay type: cell-based, human; details: 72 hours
# Text: The latter result could be attributed to the stabilization of RAR protein upon Pin1 KD.
# [5] = test system: human normal and breast cancer cell lines; experiment: Cell growth of human normal and breast cancer cell lines; assay type: cell-based
# Experimental: Absorbance was determined at 570 nm.
# To test this possibility, we chose breast cancer as a model due to the substantial oncogenic role of Pin1 in vitro and in vivo.
# cyclin D1 promoter = experiment: Cyclin D1 promoter luciferase activity upon Pin1 overexpression; details: 72 hours
# SKBR3 cells = experiment: Foci formation assay upon Pin1 overexpression
# MDA-MB-231 cells = experiment: MDA-MB-231 xenograft in nude mice
# Experimental: Tumor sizes were measured weekly and mice were sacrificed after 7 weeks to collect tumor tissues (37A). […] Pin1 and cyclin D1 in xenograft tumors were assayed by IB (37C).
# Tumor sizes were measured weekly and mice were sacrificed after 7 weeks to collect tumor tissues (37G).
# Tumor sizes were recorded weekly by a caliber for up to 8 weeks and tumor volumes were calculated using the formula L×W^2×0.52, where L and W represent length and width, respectively.
# (§3) In pilot experiments, MDA-MB-231 cells were subcutaneously injected into female nude mice in the flank.
# [6] = in humans; cited from earlier work
# MDA-MB-468 cells = experiment: MDA-MB-468 xenograft in nude mice
# Experimental: Tumor sizes were measured weekly and mice were sacrificed after 7 weeks to collect tumor tissues (37D). […] Pin1 and cyclin D1 in xenograft tumors were assayed by IB (37F).
# as §3
# Pin1 [7] = experiment: Immunoblot of Pin1 and its substrate oncogenes and tumor suppressors in breast cells
# Experimental: For immunoprecipitation and immunoblotting in the examples below, cells were polyethylenimine (PEI)- or lipofemamine-transfected with 8 μg of various plasmids, incubated in 10 cm dishes for 24 hours, and subsequently treatment with drugs as needed. […] After centrifugation at 13,000 g for 10 minutes, one tenth of the supernatant was stored as input, and the remainder was incubated 12 hours with M2 Flag agarose (Sigma). After brief centrifugation, immunoprecipitates were collected, extensively washed with the aforementioned lysis buffer twice, suspended in 2×SDS sample buffer (100 mM Tris-HCl, pH 6.8, 4% SDS, 5% β-mercaptoethanol, 20% glycerol, and 0.1% bromphenol blue), boiled for 10 minutes, and subjected to immunoblotting analysis. […] After electrophoresis, gel was transferred to nitrocellulose membranes using a semidry transfer cell. The transblotted membrane was washed twice with Tris-buffered saline containing 0.1% Tween 20 (TBST). After blocking with TBST containing 5% bovine serum albumin (BSA) for 1 hour, the membrane was incubated with the appropriate primary antibody (diluted 1:1000) in 2% BSA-containing TBST at 4° C. overnight. After incubation with the primary antibody, the membrane was washed three times with TBST for a total of 30 minutes followed by incubation with horseradish peroxidase (HRP)-conjugated goat anti-rabbit or anti-mouse IgG (diluted 1:2500) for 1 hour at room temperature. After three extensive washes with TBST for a total of 30 minutes, the immunoblots were visualized by enhanced chemiluminescence.
# RAR = experiment: Transactivation of RAR downstream target genes
# [8] = test system: mouse embryonic fibroblasts (MEFs); experiment: Cell growth assay in Pin1 WT and Pin1 KO MEFs
# Experimental: (§4) For cell growth assays described below, cells were seeded in a density of 3000 cells per well in 96-well flat-bottomed plates, and incubated for 24 h in 10% FBS-supplemented DMEM culture medium. […] Control cells received DMSO at a concentration equal to that in drug-treated cells. After 72 hours, the number of cells was counted after trypsin digestion, or medium containing 0.5 mg/ml 3-(4,5-dimethylthiazol-2-yl)-2,5-diphenyl-2H-tetrazolium bromide was added to each well for 2 hours of incubation at 37° C., followed by removal of the media before the addition of 200 μl DMSO. Absorbance was determined at 570 nm.
# Pin1 [9] = biological target: T2, Pin1 (Mus musculus, UniProt Q9QUR7); experiment: Pin1 level, mRNA and stability in MEFs (immunoblot, RT-PCR, CHX chase); assay type: cell-based
# T2 construct: endogenous in cells; host or cells: mouse embryonic fibroblasts (MEFs)
# Experimental: RNA from cells was extracted with the Total RNA isolation mini kit (Agilent). cDNA was prepared with transcriptor first strand cDNA synthesis kit (Roche) and PCR was carried out with iQ SYBR Green Supermix (Bio-Rad). Samples were run on the QIAGEN Rotor-Gene Q real-time cycler. GAPDH was used as an internal control. Analysis was performed with the delta-delta ct method. The following primers were used: […]
# Pin1 and PML-RARα = Pin1 and PML-RARα immunostaining in bone marrow of APL patients treated with ATRA
# Experimental: Tissue samples were washed with PBS and fixed with 4% paraformaldehyde at room temperature for 20 minutes, followed by permeabilization and blocking with PBS containing 0.1% Triton X-100 and 5% FBS for 1 hour. After another wash with PBS, immunostaining was performed by incubating the cells with mouse anti-Pin1 (1:1000), or rabbit anti-PML (Santa Cruz; 1:100) primary antibodies at 4° C. overnight. Primary antibodies were diluted in PBS containing 0.1% Triton X-100, 0.2% BSA, 0.5 mM PMSF, and 1 mM dithiothreitol. […] Samples were nuclear counterstained with 4,6-diamidino-2-phenylindole (DAPI), mounted and visualized with a LSM510 confocal imaging system.
# Bone marrow aspirates were obtained with informed consent from the iliac crest of patients in whom the diagnosis of acute promyelocytic leukemia was suspected based on the morphological evaluation of peripheral blood smear. […] Samples tested positive for the PML/RARα rearrangement by RT-PCR.
# human APL NB4 cells [10] = experiment: NB4 cell growth
# Experimental: as §4
# NIH 3T3 cells = experiment: Centrosome amplification induced by Pin1 overexpression; details: 72 hours
# MRL/lpr lupus prone mice = experiment: MRL/lpr lupus prone mice
# [11] = 5 or 10 mg 21 day ATRA-releasing pellets, 1 week after inoculation
# [12] = three sensitive cancer cell lines, 72 hours
# [13] = after 10 days of ATRA treatment
# T2 sequence (Q9QUR7 whole entry): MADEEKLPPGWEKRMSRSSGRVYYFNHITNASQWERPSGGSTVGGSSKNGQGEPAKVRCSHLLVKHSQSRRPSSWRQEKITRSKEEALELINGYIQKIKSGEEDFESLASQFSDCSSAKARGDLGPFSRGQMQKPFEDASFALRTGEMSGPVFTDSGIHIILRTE
# T1 sequence (Q13526 whole entry): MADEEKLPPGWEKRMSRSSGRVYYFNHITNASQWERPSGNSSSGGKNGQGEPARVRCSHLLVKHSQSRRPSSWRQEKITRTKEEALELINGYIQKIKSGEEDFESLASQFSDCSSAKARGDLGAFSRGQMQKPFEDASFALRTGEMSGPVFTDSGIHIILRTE
# Sequence of GST-FKBP12 (P62942 whole entry): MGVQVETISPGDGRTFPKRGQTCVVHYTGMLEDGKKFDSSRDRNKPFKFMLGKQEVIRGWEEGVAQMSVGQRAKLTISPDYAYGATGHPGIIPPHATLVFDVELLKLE
smiles,measurement,setting,value
"CC1=C(/C=C/C(C)=C/C=C/C(C)=C\C(=O)O)C(C)(C)CCC1 [Compound 13cRA, 13-cis-retinoic acid]",Inhibition of FKBP12,GST-FKBP12,did not inhibit
same,Inhibition of the PPIase activity of Pin1,GST-Pin1 [1],fully inhibited
same,Inhibition of cyclophilin,GST-cyclophilin,did not inhibit
same,Z score in FP-HTS,GST-Pin1 [2]; ~8200 compounds screened,lowest Z score
O=C(O[C@@H]1Cc2c(O)cc(O)cc2O[C@@H]1c1cc(O)c(O)c(O)c1)c1cc(O)c(O)c(O)c1 [EGCG],Condition of treated mice (toxic effects),[3],rather sick
same,PML-RARα in the bone marrow,[3],effectively reduced PML-RARα in the bone marrow
same,Spleen weight,[3],spleen weights nearly at basal levels
same,PML-RARα level,human APL NB4 cells [4],dose-dependently reduced PML-RARα
same,Pin1 degradation,human APL NB4 cells [4]; NB4 cells,inhibited Pin1 without degrading it
same,APL cell differentiation,NB4 cells,neither Pin1 inhibitors nor Pin1 KD induced APL cell differentiation
CC1=C(/C=C/C(C)=C/C=C/C(C)=C/CO)C(C)(C)CCC1 [retinol],Pin1 binding in the FP assay,GST-Pin1 [2],totally inactive
CCOC(=O)CN1C(=O)c2ccc3c4c(ccc(c24)C1=O)C(=O)N(CC(=O)OCC)C3=O [PiB],PML-RARα level,human APL NB4 cells [4],dose-dependently reduced PML-RARα
same,Pin1 degradation,human APL NB4 cells [4]; NB4 cells,inhibited Pin1 without degrading it
same,APL cell differentiation,NB4 cells,neither Pin1 inhibitors nor Pin1 KD induced APL cell differentiation
O=C(O)Cc1c[nH]c2ccccc12 [indo-3-acetic acid],Pin1 binding in the FP assay,GST-Pin1 [2],neither pravastatin nor indo-3-acetic acid demonstrated any binding
CC1=C(/C=C/C(C)=C/C=C/C(C)=C/C=O)C(C)(C)CCC1 [retinal],Pin1 binding in the FP assay,GST-Pin1 [2],totally inactive
Clc1cccc(C(c2ccc3[nH]cnc3c2)n2ccnc2)c1 (centres unmarked) [liarazole],Inhibition of cell proliferation in combination with ATRA,"[5]; AU565 or SKBR3 cells, cytochrome P450 inhibitor plus ATRA",generally additive effects
"CC1=C(/C=C/C(C)=C/C=C/C(C)=C/C(=O)O)C(C)(C)CCC1 [ATRA, all-trans retinoic acid]",Activation of the cyclin D1 promoter by Pin1 overexpression,cyclin D1 promoter,dose-dependently and fully inhibited
same,"Cell growth, malignant breast cancer cells",[5]; 72 hours,differential susceptibility
same,"Cell growth, non-transformed MCF10A and HMLE cells",[5]; 72 hours,highly resistant
same,Inhibition of FKBP12,GST-FKBP12,did not inhibit
same,Inhibition of the PPIase activity of Pin1,GST-Pin1 [1],fully inhibited
same,Foci formation enhanced by Pin1 overexpression,SKBR3 cells,dose-dependently and fully inhibited
same,PML-RARα in the bone marrow,[3],effectively reduced PML-RARα in the bone marrow
same,Pin1 levels in the bone marrow,[3],reduced Pin1 levels in the bone marrow
same,Spleen weight,[3],spleen weights nearly at basal levels
same,Tumor growth,MDA-MB-231 cells; [11],potently and dose-dependently inhibited tumor growth
same,Endogenous and exogenous Pin1 and cyclin D1 in tumors of Pin1-expressing MDA-MB-231 cells,MDA-MB-231 cells; ATRA implants,"dose-dependently reduced both endogenous and exogenous Pin1, and cyclin D1"
same,"Tumor growth, MDA-MB-231 cells stably expressing Pin1",MDA-MB-231 cells; ATRA implants,effectively inhibited by ATRA in a dose-dependent manner
same,Pin1 and cyclin D1 in tumors,MDA-MB-231 cells; ATRA-releasing pellets,reduced both Pin1 and its substrate cyclin D1
same,Antitumor activity,MDA-MB-231 cells; intraperitoneally 3 times a week for 8 weeks (12.5 mg/kg),only modest antitumor activity
same,Inhibition of cyclophilin,GST-cyclophilin,did not inhibit
same,Half-life,[6],~45 min
same,Tumor growth,MDA-MB-468 cells; [11],potently and dose-dependently inhibited tumor growth
same,Pin1 and cyclin D1 in tumors,MDA-MB-468 cells; ATRA-releasing pellets,reduced both Pin1 and its substrate cyclin D1
same,Effects on Pin1 and substrate proteins in normal MCF10A cells,Pin1 [7]; MCF10A cells,no appreciable effects
same,"Protein levels of Pin1 and its substrate oncogenes (cyclin D1, HER2, ERa, Akt, NFκB/p65, c-Jun, PKM2)",Pin1 [7]; [12],dose-dependent protein reduction
same,"Protein levels of Pin1 substrate tumor suppressors (Smad2/3, SMRT)",Pin1 [7]; [12],protein induction
same,PML-RARα level,human APL NB4 cells [4],dose-dependently reduced PML-RARα
same,Pin1 and PML-RARα expression,"human APL NB4 cells [4]; NB4 cells, 10 μM for 96 hours",reduced Pin1 and PML-RARα expression
same,"Transactivation of RAR downstream target genes (RARβ, TGM2)",RAR,effectively and significantly induces transactivation
same,Inhibition of growth of Pin1 WT MEFs,[8]; Pin1 WT MEFs,relatively high concentrations of ATRA were required
same,Inhibition of growth of Pin1 KO MEFs,[8]; Pin1 knockout (KO) cells,much more resistant
same,Pin1 protein level,"Pin1 [9]; MEFs, immunoblot",dose-dependently down-regulated Pin1
same,Pin1 mRNA levels,"Pin1 [9]; MEFs, quantitative RT-PCR",no obvious effects
same,Degradation of PML-RARα and Pin1,"Pin1 [9]; RARα, β, and γ triple KO MEFs",induced degradation of PML-RARα and Pin1 similar to that for WT controls
same,PML-RARα level in bone marrow of APL patients,Pin1 and PML-RARα; after 3 days of ATRA treatment,~40%
same,Pin1 level in bone marrow of APL patients,Pin1 and PML-RARα; after 3 days of ATRA treatment,~40%
same,PML-RARα level in bone marrow of APL patients,Pin1 and PML-RARα; [13],< 10%
same,Pin1 level in bone marrow of APL patients,Pin1 and PML-RARα; [13],< 10%
same,NB4 cell proliferation,human APL NB4 cells [10],suppressed
same,Centrosome amplification induced by Pin1 overexpression,NIH 3T3 cells,dose-dependently and fully inhibited
same,"Visual lupus-related phenotypes (fur loss, skin inflammation, lymphoid hyperplasia)",MRL/lpr lupus prone mice; 5 mg ATRA for 8 weeks from 8 weeks of age,drastically suppressed visual lupus-related phenotypes in all six treated mice
same,Size of spleen and lymph node,MRL/lpr lupus prone mice; 14 week-old ATRA-treated mouse,normal size
same,"Glomerular deposition of IgG, C3, and CD68","MRL/lpr lupus prone mice; mouse, in vivo",potently inhibited
same,Hyperkeratinosis,"MRL/lpr lupus prone mice; mouse, in vivo",potently inhibited
C=C(c1ccc(C(=O)O)cc1)c1cc2c(cc1C)C(C)(C)CCC2(C)C [bexarotene],Pin1 binding in the FP assay,GST-Pin1 [2],marginal binding
CCCCCCCOc1cc2c(cc1/C(C)=C/c1ccc(C(=O)O)cc1)C(C)(C)CCS2(=O)=O [Ro-415253],"Transactivation of RAR downstream target genes (RARβ, TGM2)",RAR,suppresses it
same,Pin1 binding in the FP assay,GST-Pin1 [2],minimal Pin1 binding
CC(=O)OC/C=C(C)/C=C/C=C(C)/C=C/C1=C(C)CCCC1(C)C [retinyl acetate],Pin1 binding in the FP assay,GST-Pin1 [2],totally inactive
COc1cc(C)c(/C=C/C(C)=C/C=C/C(C)=C/C(=O)O)c(C)c1C [acitretin],Pin1 binding in the FP assay,GST-Pin1 [2],moderate binding
CC1(C)CCC(C)(C)c2cc(NC(=O)c3ccc(C(=O)O)cc3)ccc21 [tamibarotene],Pin1 binding in the FP assay,GST-Pin1 [2],moderate binding
